The values that follow come from US20230322776A1, “NEW ARYL-PYRIDO-PYRIMIDIN-ONE DERIVATIVES” (Hoffmann-La Roche Inc., priority 2020, published 2023).

The target in assay [1] is BRAF V660E (Homo sapiens, UniProt P15056, V600E). The assay is described as follows: KD BRAF V660E (Table 1; no method described). The assay is classed as binding.
Assay [2] addresses BRAF (Homo sapiens, UniProt P15056). The assay is described as follows: KD BRAF (Table 1; no method described). Format: binding.
The test system of assay [3] is A375 cells (V600E mutated BRAF), ERK phospho-T202/Y204. Kind of assay: HTRF assay for P-ERK determination in A375 cells (BRAF inhibition). The assay is classed as cell-based. The conditions noted are these: Homo sapiens, A-375, 1 hour drug incubation, DMSO = 100%, 10 μM Dabrafenib = 0%, top concentration 10 μM, read-out: P-ERK_A375: IC50. The source says: (§1) A375 is a cellular cancer model expressing V600E mutated BRAF and HCT116 a cellular cancer model expressing WT BRAF. First generation BRAF inhibitors such as e.g. dabrafenib induce a paradox effect on tumour cells in that they inhibit the growth of V600E mutated BRAF cells (such as e.g. A375), while they activate growth in WT BRAF cells (such as e.g. HCT 116). ERK 1,2 phosphorylation (terminal member of the phosphorylation cascade of the MAPK pathway) is hereafter reported as main readout for the activation status of the MAPK pathway. DMEM no-phenol red medium supplemented with L-glutamine was purchased from (Thermo Fisher Scientific). Fetal bovine serum (FBS) was purchased from VWR. Advanced ERK phospho-T202/Y204 kit—10,000 tests was purchased from Cisbio cat #64AERPEH. A375 (catalog #CRL-1619) and HCT116 (catalog #CCL-247) cells were originally obtained from American type Culture Collection (ATCC) and banked by the Roche repository. 384-Well microplates ultized were purchased from Greiner Bio-One, 384-well, (With Lid, HiBase, Low volume cat 784-080).
(§2) HTRF Assay for P-ERK Determination in A375 or HCT116 Cells
(§3) Prior to the assay, A375 and HCT116 cell lines are maintained in DMEM no-phenol red medium supplemented with 10% fetal bovine serum (FBS). Following compound treatment, P-ERK levels are determined by measuring FRET fluorescence signal induced by selective binding of two antibodies provided in the mentioned kit (Cisbio cat #64AERPEH) on ERK protein when phosphorylated at Thr202/Tyr204. Briefly, 8000 cells/well in 12 μl media/well are plated in the 384-well plate and left overnight in the incubator (at 37° C. with 5% CO2-humidified atmosphere), the following day the plate is treated in duplicate with test compounds, dabrafenib and PLX8394 (the latter two as controls) at the following final drug concentrations: 10 μM, 3 μM, 1 μM, 0.3 μM, 0.1 μM, 0.03 μM, 0.01 μM, 0.003 μM and 0.001 μM. All wells are subjected to DMSO normalization and drug incubation occurs for 1 hour. Then, 4 μl of a 4× lysis buffer supplied with the kit are added to the wells, the plate is then centrifuged for 30 second (3000 rpm) and incubated on a plate shaker for 1 h at rt.
(§4) At the end of the incubation 4 μl/well of advanced P-ERK antibody solution (prepared according to manufacturer's instruction) followed by 4 μl/well of criptate P-ERK antibody solution (prepared according to manufacturer's instruction) (Cisbio cat #64AERPEH) are added to test wells.
(§5) In order to allow proper data normalization, control wells non drug treated reported in the following table are always included in each plate (according to manufacturer's instruction):
(§6) The plate is then centrifuged at 3000 rpm for 30 seconds, sealed to prevent evaporation and incubated overnight in the dark at room temperature. The plate is then analyzed and fluorescence emission value collected through a Pherastast FSX (BMG Labtech) apparatus at […]. The obtained fluorescence values are processed according to the formula Ratio=[…]*10000 then the average of the ratio on the blank is subtracted to all values.
Data are normalized in the case of A375 cells (BRAF inhibition) considering the average of the ratio (blank subtracted) derived by DMSO only treated cells as 100% and by considering the average of the ratio (blank subtracted) derived by 10 μM Dabrafenib treated cells as 0%. Mean of the normalized points are fitted with sigmoidal curve and IC50 values are determined.
In general terms: Time-resolved FRET reads energy transfer from a long-lived donor to a nearby acceptor.

Assay [4] relates to HCT116 cells (WT BRAF), ERK phospho-T202/Y204. Kind of assay: HTRF assay for P-ERK determination in HCT116 cells (BRAF activation, paradox). Format: cell-based. The conditions noted are these: for EC50: Homo sapiens, HCT-116, HCT116 cells, 1 hour drug incubation, activation relative to maximum Dabrafenib-mediated activation (100%), top concentration 10 μM, read-out: P-ERK_HCT-116: EC50—50PCT; for Fold Selectivity HCT-116 EC50-50/ A375: ratio of P-ERK HCT-116 EC50-50PCT to P-ERK A375 IC50.
Excerpt: as §1, §2, §3, §4, §5, §6
Data are normalized in the case of HCT116 cells (BRAF activation) considering the average of the ratio (blank subtracted) derived by DMSO only treated cells as 0% and by considering the average of the ratio (blank subtracted) derived by Dabrafenib treated cells at the concentration which provides the highest signal as 100%. Individual points are fitted with either sigmoidal or bell shape curves, the percentage of activation compared to maximum Dabrafenib-mediated activation is determined.

Chain of BRAF (P15056 whole entry): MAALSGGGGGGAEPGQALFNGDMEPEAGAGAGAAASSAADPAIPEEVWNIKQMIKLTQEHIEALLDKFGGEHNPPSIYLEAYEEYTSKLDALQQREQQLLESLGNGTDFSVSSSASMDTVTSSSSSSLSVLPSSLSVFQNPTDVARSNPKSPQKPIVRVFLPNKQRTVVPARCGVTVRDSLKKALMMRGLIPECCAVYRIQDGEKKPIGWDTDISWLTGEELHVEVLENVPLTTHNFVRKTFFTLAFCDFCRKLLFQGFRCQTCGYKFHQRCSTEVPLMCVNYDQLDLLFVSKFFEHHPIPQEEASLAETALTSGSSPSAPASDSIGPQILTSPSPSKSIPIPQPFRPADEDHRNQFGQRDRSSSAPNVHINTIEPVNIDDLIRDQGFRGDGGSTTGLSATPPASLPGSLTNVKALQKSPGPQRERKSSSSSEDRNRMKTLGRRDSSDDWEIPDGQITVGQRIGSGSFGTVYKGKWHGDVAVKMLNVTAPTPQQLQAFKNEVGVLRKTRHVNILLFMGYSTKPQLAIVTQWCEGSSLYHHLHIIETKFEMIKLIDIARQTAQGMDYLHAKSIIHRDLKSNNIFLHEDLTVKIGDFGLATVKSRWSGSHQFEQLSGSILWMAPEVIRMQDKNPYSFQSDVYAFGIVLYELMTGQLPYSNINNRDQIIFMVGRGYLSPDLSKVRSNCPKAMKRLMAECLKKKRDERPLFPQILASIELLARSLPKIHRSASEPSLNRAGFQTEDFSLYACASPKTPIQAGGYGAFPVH
Chain of BRAF V660E (P15056 2-766 V600E): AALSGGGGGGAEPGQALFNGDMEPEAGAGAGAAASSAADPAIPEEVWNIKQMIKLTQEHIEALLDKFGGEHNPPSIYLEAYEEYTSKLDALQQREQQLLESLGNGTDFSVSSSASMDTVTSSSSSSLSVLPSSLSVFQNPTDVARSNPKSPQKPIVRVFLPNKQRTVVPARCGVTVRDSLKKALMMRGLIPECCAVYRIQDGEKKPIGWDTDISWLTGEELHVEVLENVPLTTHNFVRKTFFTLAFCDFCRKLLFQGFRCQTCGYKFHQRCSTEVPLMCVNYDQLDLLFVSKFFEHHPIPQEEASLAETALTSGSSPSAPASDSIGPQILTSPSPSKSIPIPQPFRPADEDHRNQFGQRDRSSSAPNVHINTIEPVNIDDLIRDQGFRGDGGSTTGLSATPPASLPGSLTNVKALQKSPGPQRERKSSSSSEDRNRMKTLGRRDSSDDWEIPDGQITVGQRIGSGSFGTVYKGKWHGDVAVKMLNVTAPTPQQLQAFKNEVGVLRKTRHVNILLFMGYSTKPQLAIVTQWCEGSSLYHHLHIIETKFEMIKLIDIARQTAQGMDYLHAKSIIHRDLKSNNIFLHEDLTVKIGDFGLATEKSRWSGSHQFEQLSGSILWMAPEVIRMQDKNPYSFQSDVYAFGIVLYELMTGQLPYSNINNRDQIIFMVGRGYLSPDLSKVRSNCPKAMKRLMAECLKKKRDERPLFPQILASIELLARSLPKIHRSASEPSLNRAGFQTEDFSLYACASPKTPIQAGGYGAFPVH

Take `CC(=O)N1CCC(NC(=O)CCCNc2ncc3cc(-c4c(F)ccc(NS(=O)(=O)N5CC[C@@H](F)C5)c4F)c(=O)n(C)c3n2)CC1` [Example 33, N-(1-acetylpiperidin-4-yl)-4-[[6-[2,6-difluoro-3-[[(3R)-3-fluoropyrrolidin-1-yl]sulfonylamino]phenyl]-8-methyl-7-oxopyrido[2,3-d]pyrimidin-2-yl]amino]butanamide]: the equilibrium dissociation constant (Kd) – broadly, the equilibrium constant for the complex coming apart – in assay [1] was determined as 60.1 nM. In assay [2], this molecule showed a dissociation constant (Kd) of 24.9 nM. For the same molecule, the 50% inhibitory concentration (IC50) (in general, the concentration needed to halve the response being measured) in assay [3] amounted to 3170 nM. In assay [4], the concentration for a half-maximal effect (EC50) (commonly the concentration giving half of the maximal effect) was at least 10000 nM and the “Fold Selectivity HCT-116 EC50-50/ A375” value is listed as above 3.2.
Consider `CCN(C)S(=O)(=O)Nc1ccc(F)c(-c2cc3cnc(NCCCN(C)C(C)=O)nc3n(C)c2=O)c1F` [Example 30, N-[3-[[6-[3-[[ethyl(methyl)sulfamoyl]amino]-2,6-difluorophenyl]-8-methyl-7-oxopyrido[2,3-d]pyrimidin-2-yl]amino]propyl]-N-methylacetamide], for which the dissociation constant (Kd) in assay [1] was determined as 159 nM; in assay [2], 72.3 nM. Besides, the 50% inhibitory concentration (IC50) in assay [3] was determined as 287 nM. Moreover, the EC50 in assay [4] stood at 5700 nM. For the same molecule, the “Fold Selectivity HCT-116 EC50-50/ A375” value in assay [4] turned out to be 19.8.
For `CC(=O)N(C)CCCNc1ncc2cc(-c3c(F)ccc(NS(=O)(=O)N4CC[C@@H](F)C4)c3F)c(=O)n(C)c2n1` [Example 27, N-[3-[[6-[2,6-difluoro-3-[[(3R)-3-fluoropyrrolidin-1-yl]sulfonylamino]phenyl]-8-methyl-7-oxopyrido[2,3-d]pyrimidin-2-yl]amino]propyl]-N-methylacetamide] the same measures were 41.9 nM, 9.6 nM, 54.8 nM, 1830 nM and 33.4.
Taken in the same sequence, the figures for `Cn1c(=O)c(-c2c(F)ccc(NS(=O)(=O)N3CC[C@@H](F)C3)c2F)cc2cnc(NCC3CC3)nc21` [Example 10, (3R)-N-[3-[2-(cyclopropylmethylamino)-8-methyl-7-oxopyrido[2,3-d]pyrimidin-6-yl]-2,4-difluorophenyl]-3-fluoropyrrolidine-1-sulfonamide] were 37.5 nM, 19 nM, 9.9 nM, 645 nM and 65.1.
Consider `CC(C)(C)OC(=O)N1CCC(n2c(=O)c(-c3c(F)ccc(NS(=O)(=O)N4CC[C@@H](F)C4)c3F)cc3cnc(NCC4CC4)nc32)C1` (mixture of isomers) [Example 38, tert-Butyl (3RS)-3-[2-(cyclopropylmethylamino)-6-[2,6-difluoro-3-[[(3R)-3-fluoropyrrolidin-1-yl]sulfonylamino]phenyl]-7-oxopyrido[2,3-d]pyrimidin-8-yl]pyrrolidine-1-carboxylate], for which the results for the equilibrium dissociation constant (Kd) in assay [1] and in assay [2] were 2820 nM and 1420 nM, respectively. In addition, the IC50 in assay [3] came out at 826 nM. Besides, the EC50 in assay [4] was at least 10000 nM. Moreover, the “Fold Selectivity HCT-116 EC50-50/ A375” value in assay [4] is 12.1.
Taken in the same sequence, the figures for `CC(=O)NCCCCCNc1ncc2cc(-c3c(F)ccc(NS(=O)(=O)N4CC[C@@H](F)C4)c3F)c(=O)n(C)c2n1` [Example 25, N-[5-[[6-[2,6-difluoro-3-[[(3R)-3-fluoropyrrolidin-1-yl]sulfonylamino]phenyl]-8-methyl-7-oxopyrido[2,3-d]pyrimidin-2-yl]amino]pentyl]acetamide] were 26.8 nM, 12.2 nM, 44 nM, 3180 nM and 72.3.
Taken in the same sequence, the figures for `Cn1c(=O)c(-c2c(F)ccc(NS(=O)(=O)N3CC[C@@H](F)C3)c2F)cc2cnc(NCCCc3ccccc3)nc21` [Example 5, (3R)-N-[2,4-difluoro-3-[8-methyl-7-oxo-2-(3-phenylpropylamino)pyrido[2,3-d]pyrimidin-6-yl]phenyl]-3-fluoropyrrolidine-1-sulfonamide] were 115 nM, 46.5 nM, 42.6 nM, 394 nM and 9.2.
On to `Cn1c(=O)c(-c2c(F)ccc(NS(=O)(=O)N3CC[C@@H](F)C3)c2F)cc2cnc(NCCN3CCN(C(=O)OC(C)(C)C)CC3)nc21` [Example 45, tert-butyl 4-[2-[[6-[2,6-difluoro-3-[[(3R)-3-fluoropyrrolidin-1-yl]sulfonylamino]phenyl]-8-methyl-7-oxopyrido[2,3-d]pyrimidin-2-yl]amino]ethyl]piperazine-1-carboxylate], for which the concentration for half-maximal inhibition (IC50) in assay [3] is 26.8 nM. In assay [4], the half-maximal effective concentration (EC50) amounted to 1480 nM and the “Fold Selectivity HCT-116 EC50-50/ A375” value is 55.1.
`Cn1c(=O)c(-c2c(F)ccc(NS(=O)(=O)N3CC[C@@H](F)C3)c2F)cc2cnc(NCCC3CCN(C(=O)OC(C)(C)C)CC3)nc21` [Example 1, tert-Butyl 4-[2-[[6-[2,6-difluoro-3-[[(3R)-3-fluoropyrrolidin-1-yl]sulfonylamino]phenyl]-8-methyl-7-oxopyrido[2,3-d]pyrimidin-2-yl]amino]ethyl]piperidine-1-carboxylate] had a Kd in assay [1] of 190 nM. The molecule also had a Kd in assay [2] of 108 nM. The IC50 in assay [3] is 63.3 nM. In assay [4], the concentration giving a half-maximal response (EC50) was determined as 3360 nM and the “Fold Selectivity HCT-116 EC50-50/ A375” value came to 53.1.
For `CC(=O)NCCOCCOCCn1c(=O)c(-c2c(F)ccc(NS(=O)(=O)N3CC[C@@H](F)C3)c2F)cc2cnc(NCC3CC3)nc21` [Example 41, N-[2-[2-[2-[2-(cyclopropylmethylamino)-6-[2,6-difluoro-3-[[(3R)-3-fluoropyrrolidin-1-yl]sulfonylamino]phenyl]-7-oxopyrido[2,3-d]pyrimidin-8-yl]ethoxy]ethoxy]ethyl]acetamide] the same measures were 56.1 nM, 21.2 nM, 844 nM, at least 10000 nM and above 11.8.
For `Cn1c(=O)c(-c2c(F)ccc(NS(=O)(=O)N3CC[C@@H](F)C3)c2F)cc2cnc(NCCOCCOCCO)nc21` [Example 4, (3R)-N-[2,4-difluoro-3-[2-[2-[2-(2-hydroxyethoxy)ethoxy]ethylamino]-8-methyl-7-oxopyrido[2,3-d]pyrimidin-6-yl]phenyl]-3-fluoropyrrolidine-1-sulfonamide] the same measures were 99 nM, 39.9 nM, 47.4 nM, at least 10000 nM and above 211.0.
Regarding `CC(=O)N1CCC(CCNc2ncc3cc(-c4c(F)ccc(NS(=O)(=O)N5CC[C@@H](F)C5)c4F)c(=O)n(C)c3n2)CC1` [Example 20, (3R)—N-[3-[2-[2-(1-acetylpiperidin-4-yl)ethylamino]-8-methyl-7-oxopyrido[2,3-d]pyrimidin-6-yl]-2,4-difluorophenyl]-3-fluoropyrrolidine-1-sulfonamide], the Kd in assay [1] was found to be 27 nM. The molecule further displayed a Kd in assay [2] of 10.2 nM. Further, in assay [3], the concentration for half-maximal inhibition (IC50) came out at 36.7 nM. In assay [4], the 50% effective concentration (EC50) stood at 1650 nM and the “Fold Selectivity HCT-116 EC50-50/ A375” value was determined as 44.9.
